Here are results for twelve compounds from PubChem BioAssay (NCI).

Common to all, as to assay: NCI tumour cell line growth inhibition, 48 h
Experiment [1] has as its system KM12 colon.
Experiment [2] deals with SNB-75 CNS.
Experiment [3] concerns SK-MEL-2 melanoma.
For experiment [4], the system named is SW-620 colon.
For experiment [5], the system named is UACC-62 melanoma.
The test system of experiment [6] is LOX IMVI melanoma.
The test system of experiment [7] is NCI-H226 lung.
Experiment [8] has as its system HOP-92 NSCLC.
The test system of experiment [9] is OVCAR-5 ovarian.
In experiment [10] the test system is SF-539 CNS.

Several values for one entry are separate records, joined by “and”; a condition that tells them apart may be missing. Equal values may be shown once.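 In this assay, cells in 96-well plates receive the compound at five concentrations for 48 hours. Endpoints are linearly interpolated between the surrounding concentrations. GI50 is the concentration that inhibits growth by half. Definition used: TGI = concentration required for complete inhibition of growth.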

Consider `Cc1ccc(S(=O)(=O)NCCN2c3nc4ccccc4cc3Sc3cc4ccccc4nc32)cc1`, for which the GI50 in experiment [1] was > 100 µM; in experiment [2], 1.54 µM; in experiment [3], > 37.4 µM; in [4], > 100 µM; in experiment [5], 11.4 µM; in experiment [6], > 81.7 µM. The GI50 in [7] is 64.2 µM; in experiment [8] it was 2.19 µM; in experiment [9], > 100 µM; in [10], 4.79 µM. Further, the TGI in experiment [1] is > 100 µM; in [2], 7.84 µM; in experiment [3], > 80.2 µM; in experiment [4], > 100 µM; in experiment [5] it was 51.4 µM; in experiment [6] it was > 100 µM. In addition, the TGI in [7] is > 100 µM; in [8], 13.3 µM; in experiment [9] it was > 100 µM; in [10] it was 20.5 µM.
Regarding `O=c1c(OC/C(=N/O)c2ccccc2)c(-c2ccccc2)oc2ccccc12`, the GI50 in [1] is 10.6 µM; in experiment [2], 16.8 µM; in experiment [3], 16.4 µM; in [4], 11.4 µM; in experiment [5], 9.2 µM; in experiment [6], 10.5 µM. Also, the GI50 in experiment [7] was 21.3 µM; in [8], 14.3 µM; in experiment [9], 22.3 µM; in experiment [10], 12.5 µM. Further, the TGI in experiment [1] is 24.6 µM; in experiment [2], > 50 µM; in experiment [3], > 50 µM; in [4], 25.4 µM; in [5], 25.2 µM; in experiment [6], 19.5 µM. The TGI in experiment [7] is > 50 µM; in experiment [8], > 50 µM; in experiment [9] it was > 50 µM; in experiment [10], 28 µM.
For the compound `CCOC(=O)c1c2ccc(/C=C/C(=O)OC)ccc-2c(C(=O)OCC)c1N`, the TGI in [1], in [2], in experiment [3], in [4], in [5] and in experiment [6] was > 100 µM each time. Moreover, the TGI in [7], in experiment [8], in [9] and in experiment [10] was > 100 µM in each case.
In the case of `CCN(CC)CC(C)Nc1ccc(C)c2sc3ccccc3c(=O)c12` (stereo not drawn), the GI50 was 4.71 µM in [1]; 2.2 µM in [2]; 9.07 µM in [3]; 3.33 µM in experiment [4]; 1.82 µM in experiment [5]; 1.52 µM in [6]. Moreover, the GI50 in [7] was 4.21 µM; in [8] it was 0.896 µM; in [9], 2.95 µM; in experiment [10], 3.2 µM. Further, the TGI in [1] is 16.9 µM; in experiment [2], 10.8 µM; in experiment [3] it was 25.5 µM; in experiment [4] it was 13.7 µM; in experiment [5] it was 3.98 µM; in [6], 3.99 µM. Also, the TGI in experiment [7] was determined as 18.8 µM; in experiment [8], 8.36 µM; in [9], 12.4 µM; in experiment [10], 12.7 µM.
Consider `COc1cccc2c(=O)c3c(sc12)c(NCCCN)nc1ccccc13`, for which the GI50 is 1.62 µM in experiment [1]; 1.64 µM in [2]; 2 µM in experiment [3]; 1.3 µM in experiment [4]; 1.64 µM in [5]; 1.3 µM in experiment [6]. Moreover, the GI50 in [7] is 1.52 µM; in experiment [8] it was 1.27 µM; in experiment [9] it was 1.65 µM; in experiment [10] it was 1.6 µM. In addition, the TGI amounted to 3.21 µM in experiment [1]; 3.2 µM in [2]; 4.15 µM in [3]; 2.81 µM in experiment [4]; 3.05 µM in experiment [5]; 2.68 µM in [6]. Besides, the TGI in experiment [7] was 3.15 µM; in experiment [8], 2.75 µM; in experiment [9] it was 3.01 µM; in [10], 2.97 µM.
In the case of `Cn1cnc([N+](=O)[O-])c1Sc1ncnc2nc[nH]c12`, the GI50 is 4.25 µM and 10.8 µM in experiment [1]; 0.461 µM and 3.03 µM in experiment [2]; 18.8 µM and 32.1 µM in [4]; 2.54 µM and 3.4 µM in [5]; 1.11 µM and 1.63 µM in experiment [6]; 7.17 µM and > 27.2 µM in experiment [7]. In addition, the GI50 in experiment [9] is 8.42 µM and 53.2 µM; in experiment [10], 4.81 µM and 3.26 µM. Also, the TGI in experiment [1] was > 100 µM; in experiment [2], 17.1 µM and > 100 µM; in experiment [3] it was > 100 µM; in [4], > 100 µM; in experiment [5], > 100 µM; in experiment [6] it was > 100 µM. Further, the TGI in [7], in experiment [8], in [9] and in experiment [10] was > 100 µM in each case.
For the compound `O=C1C=C(c2cc(Br)c(O)c(Br)c2)/C(=C/c2cc(Br)c(O)c(Br)c2)O1`, the GI50 is 37.6 µM in experiment [1]; 39 µM in experiment [2]; 38.5 µM in experiment [3]; 29.7 µM in experiment [4]; 16.8 µM in experiment [5]; 14.9 µM in [6]. The GI50 in experiment [7] is 43.6 µM; in [8], 15.4 µM; in [9], 64.8 µM; in experiment [10], 24 µM. For the same compound, the TGI in experiment [1] is > 75 µM; in experiment [2], > 75 µM; in experiment [3], > 75 µM; in [4], > 75 µM; in experiment [5], 38.2 µM; in experiment [6] it was 43.2 µM. In addition, the TGI in experiment [7], in experiment [8], in [9] and in experiment [10] was > 75 µM each time.
Regarding `O=S(=O)(O)c1ccc2cc(N=Nc3cc(S(=O)(=O)O)c4cccnc4c3O)ccc2c1`, the TGI in experiment [1], in [2], in experiment [3], in [4], in experiment [5] and in experiment [6] was > 100 µM each time. The TGI in experiment [7], in [8], in [9] and in experiment [10] was > 100 µM each time.
For `CC(C)(C)C([O-])=C1C(=O)c2ccccc2C1=O.CC(C)(C)C([O-])=C1C(=O)c2ccccc2C1=O.CC[O-].CC[O-].[Ti+4]`, the GI50 was 37.6 µM in [1]; 42.3 µM in [2]; 25.8 µM in [3]; 25.5 µM in [4]; 11.9 µM in [5]; 40.4 µM in experiment [6]. Besides, the GI50 was 56.7 µM in [7], 26.9 µM in experiment [8], 34.8 µM in experiment [9] and 50.8 µM in experiment [10]. The TGI in experiment [1] was > 100 µM; in experiment [2] it was > 100 µM; in experiment [3] it was 85.2 µM; in experiment [4], > 100 µM; in experiment [5], 28.8 µM; in [6], > 100 µM. The TGI in experiment [7], in experiment [8], in experiment [9] and in experiment [10] was > 100 µM each time.
As for `COC(=O)c1ccc2c(c1)c1c(C)c3cnccc3c(C)c1n2C`, the GI50 in experiment [1] is 0.0495 µM; in experiment [2] it was 0.072 µM; in experiment [3], 0.107 µM; in [4], 0.0375 µM; in experiment [5], 0.0416 µM; in [6], 0.0391 µM. For the same compound, the GI50 in [7] was 0.0574 µM; in experiment [8], 0.0653 µM; in experiment [9], 0.117 µM; in experiment [10] it was 0.075 µM. For the same compound, the TGI in [1] was 1.89 µM; in experiment [2], 0.563 µM; in experiment [3], 0.471 µM; in experiment [4] it was 1.31 µM; in [5], 0.151 µM; in experiment [6], 0.194 µM. Further, the TGI in experiment [7] is 0.341 µM; in experiment [8] it was 0.584 µM; in experiment [9], 1.26 µM; in [10], 0.763 µM.
`CCN(CC)C(=S)SSC1CCCCC1`: the GI50 in experiment [1] is 13 µM; in [2], 17.5 µM; in experiment [3], 26.7 µM; in experiment [4], 11.7 µM; in experiment [5], 18 µM; in [6], 8.6 µM. For the same compound, the GI50 in experiment [7] is 24.7 µM; in [8] it was 14.3 µM; in experiment [9], 18.7 µM; in [10] it was 15.3 µM. In addition, the TGI was determined as 28.8 µM in experiment [1]; 48 µM in experiment [2]; 61.2 µM in [3]; 26.2 µM in experiment [4]; 42.8 µM in [5]; 24.3 µM in experiment [6]. The TGI was 76.1 µM in experiment [7], 40 µM in [8], 32.7 µM in experiment [9] and 31.7 µM in experiment [10].
Consider `CCOC(=O)/C=C(/CN1C(=O)c2ccccc2C1=O)c1ccccc1`, for which the TGI in [1], in [2], in experiment [3], in experiment [4], in [5] and in experiment [6] was > 100 µM each time. Further, the TGI in experiment [7], in experiment [8], in experiment [9] and in experiment [10] was > 100 µM throughout.
